Results taken from patent publication US10208019B2, “GLP-1 receptor agonists and uses thereof” (Pfizer Inc., priority 2016, dated 2019).
Read-outs that look alike come from different tables or passages of the source.

Molecular target: human GLP-1R (Homo sapiens, UniProt P43220, G168S)
Test: CHO GLP-1R Clone H6—Assay 1: HTRF cAMP cell-based functional agonist assay (high GLP-1R density)
Details: for EC50: CHO GLP-1R Clone H6, cAMP HTRF, geometric mean; for Emax: read-out: Assay 1 Emax (%), CHO GLP-1R Clone H6; for Emax / Assay 1 Emax (%): relative to saturating concentration of full agonist GLP-1 (1 μM), arithmetic mean; for Assay 1 Emax (%): CHO GLP-1R Clone H6

Sequence of human GLP-1R (P43220 24-463 G168S limits assumed): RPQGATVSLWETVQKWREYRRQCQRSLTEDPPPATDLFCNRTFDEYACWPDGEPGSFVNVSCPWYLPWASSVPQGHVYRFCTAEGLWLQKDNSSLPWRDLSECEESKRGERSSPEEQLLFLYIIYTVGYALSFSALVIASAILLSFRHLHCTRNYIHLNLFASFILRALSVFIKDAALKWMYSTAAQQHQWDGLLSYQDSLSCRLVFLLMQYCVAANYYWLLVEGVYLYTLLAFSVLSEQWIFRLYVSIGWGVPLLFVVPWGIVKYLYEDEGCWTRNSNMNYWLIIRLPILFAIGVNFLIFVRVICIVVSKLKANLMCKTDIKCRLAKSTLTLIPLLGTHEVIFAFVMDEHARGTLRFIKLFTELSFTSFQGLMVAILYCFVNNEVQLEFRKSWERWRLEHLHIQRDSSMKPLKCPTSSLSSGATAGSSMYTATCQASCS

SMILES | EC50 (read-out: Assay 1 EC50) [nM] | Emax [%] | EC50 (Assay 1 EC50 (nM)) [nM] | Assay 1 Emax (%)
N#Cc1ccc(COc2cccc(C3CCN(Cc4nc5ccc(C(=O)O)cc5n4CC4CCOC4)CC3)n2)c(F)c1 (single isomer, unassigned; enantiomer 2) [Example 14A-10, 2-[(4-{6-[(4-cyano-2-fluorobenzyl)oxy]pyridin-2-yl}piperidin-1-yl)methyl]-1-(tetrahydrofuran-3-ylmethyl)-1H-benzimidazole-6-carboxylic acid,enantiomer 2] |  |  |  | 64
COCCn1c(CN2CCC(c3cccc(OCc4ccc(C#N)c(C)c4)n3)CC2)nc2ccc(C(=O)O)cc21 [Example 8A-02, 2-((4-(6-((4-cyano-3-methylbenzyl)oxy)pyridin-2-yl)piperidin-1-yl)methyl)-1-(2-methoxyethyl)-1H-benzo[d]imidazole-6-carboxylic acid] | 150 | 80 |  | 
O=C(O)c1ccc2nc(CN3CCC(c4cccc(OCc5ccc(Cl)cc5F)n4)CC3)n(CCC3CCOCC3)c2c1 [Example 11A-65, 2-[(4-{6-[(4-chloro-2-fluorobenzyl)oxy]pyridin-2-yl}piperidin-1-yl)methyl]-1-[2-(tetrahydro-2H-pyran-4-yl)ethyl]-1H-benzimidazole-6-carboxylic acid] | 3100 | 51 |  | 
COCCn1c(CN2CCN(c3cccc(OCc4ccc(Cl)cc4F)n3)CC2C(F)(F)F)nc2ccc(C(=O)O)cc21 (single isomer, unassigned; enantiomer 1) [Example 12A-01, 2-((4-(6-((4-Chloro-2-fluorobenzyl)oxy)pyridin-2-yl)-2-(trifluoromethyl)piperazin-1-yl)methyl)-1-(2-methoxyethyl)-1H-benzo[d]imidazole-6-carboxylic acid, enantiomer 1] |  |  | > 20000 | 
COCCn1c(CN2CCN(c3cccc(OCc4ccc(Cl)cc4F)n3)[C@@H](CO)C2)nc2ccc(C(=O)O)cc21 [Example 1A-15, 2-{[(3R)-4-{6-[(4-chloro-2-fluorobenzyl)oxy]pyridin-2-yl}-3-(hydroxymethyl)piperazin-1-yl]methyl}-1-(2-methoxyethyl)-1H-benzimidazole-6-carboxylic acid] | > 20000 |  |  | 
O=C(O)c1ccc2nc(CN3CCC(c4cccc(OCc5ccc(Cl)cc5F)n4)CC3)n(CCN3CCOCC3)c2c1 [Example 11A-50, 2-[(4-{6-[(4-chloro-2-fluorobenzyl)oxy]pyridin-2-yl}piperidin-1-yl)methyl]-1-[2-(morpholin-4-yl)ethyl]-1H-benzimidazole-6-carboxylic acid] | 380 | 75 |  | 
COCCn1c(CN2CCC(c3cccc(OCc4ccc(Cl)cc4F)n3)CC2C)nc2ccc(C(=O)O)cc21 (single isomer, unassigned) [Example 13A-01, trans 2-{[4-{6-[(4-Chloro-2-fluorobenzyl)oxy]pyridin-2-yl}-2-methylpiperidin-1-yl]methyl}-1-(2-methoxyethyl)-1H-benzimidazole-6-carboxylic acid] |  |  | 1200 | 58
N#Cc1ccc(COc2nc(C3CCN(Cc4nc5ccc(C(=O)O)cc5n4CC4CCOC4)CC3)ccc2F)cc1 (single isomer, unassigned; enantiomer 1) [Example 14A-05, 2-[(4-{6-](4-cyanobenzyl)oxy]-5-fluoropyridin-2-yl}piperidin-1-yl)methyl]-1-(tetrahydrofuran-3-ylmethyl)-1H-benzimidazole-6-carboxylic acid,enantiomer 1] |  |  |  | 82
CC(C)c1cc(Cn2c(CN3CCC(c4cccc(OCc5ccc(Cl)cc5F)n4)CC3)nc3ccc(C(=O)O)cc32)on1 [Example 11A-06, 2-[(4-{6-[(4-chloro-2-fluorobenzyl)oxy]pyridin-2-yl}piperidin-1-yl)methyl]-1-{[3-(propan-2-yl)-1,2-oxazol-5-yl]methyl}-1H-benzimidazole-6-carboxylic acid] | > 20000 |  |  | 
Cn1c(CN2CCC(c3cccc(OCc4ccc(Cl)cc4)n3)CC2)nc2ccc(C(=O)O)cc21 [Example 9A-05, 2-[(4-{6-[(4-chlorobenzyl)oxy]pyridin-2-yl}piperidin-1-yl)methyl]-1-methyl-1H-benzimidazole-6-carboxylic acid] | 2700 | 85 |  | 
COCCn1c(CN2CCN(c3cccc(OCc4ccc(Cl)cc4F)n3)CC2(C)C)nc2ccc(C(=O)O)cc21 [Example 12A-06, 2-[(4-{6-[(4-chloro-2-fluorobenzyl)oxy]pyridin-2-yl}-2,2-dimethylpiperazin-1-yl)methyl]-1-(2-methoxyethyl)-1H-benzimidazole-6-carboxylic acid] | 510 | 64 |  | 
O=C(O)c1ccc2nc(CN3CCC(c4cccc(OCc5ccc(Cl)cc5F)n4)CC3)n(CCC3CCCCO3)c2c1 (stereo not shown) [Example 11A-05, 2-[(4-{6-[(4-chloro-2-fluorobenzyl)oxy]pyridin-2-yl}piperidin-1-yl)methyl]-1-[2-(tetrahydro-2H-pyran-2-yl)ethyl]-1H-benzimidazole-6-carboxylic acid] | > 20000 |  |  | 
COCCN1CCCC(Cn2c(CN3CCC(c4cccc(OCc5ccc(Cl)cc5F)n4)CC3)nc3ccc(C(=O)O)cc32)C1 (stereo not shown) [Example 11A-13, 2-[(4-{6-[(4-chloro-2-fluorobenzyl)oxy]pyridin-2-yl}piperidin-1-yl)methyl]-1-{[1-(2-methoxyethyl)piperidin-3-yl]methyl}-1H-benzimidazole-6-carboxylic acid] | > 20000 |  |  | 

Continued, in another order:

EC50 (read-out: Assay 1 EC50) [nM] | Emax [%] | EC50 (Assay 1 EC50 (nM)) [nM] | SMILES | Assay 1 Emax (%)
520 | 80 |  | Cc1nc(Cn2c(CN3CCC(c4cccc(OCc5ccc(Cl)cc5F)n4)CC3)nc3ccc(C(=O)O)cc32)c(C)o1 [Example 11A-55, 2-[(4-{6-[(4-chloro-2-fluorobenzyl)oxy]pyridin-2-yl}piperidin-1-yl)methyl]-1-[(2,5-dimethyl-1,3-oxazol-4-yl)methyl]-1H-benzimidazole-6-carboxylic acid] | 
290 | 64 |  | O=C(O)c1ccc2nc(CN3CCC(c4cccc(OCc5ccc(Cl)cc5F)n4)CC3)n(CCO)c2c1 [Example 10A-50] | 
75 | 69 |  | CN(C)CCn1c(CN2CCC(c3cccc(OCc4ccc(Cl)cc4F)n3)CC2)nc2ccc(C(=O)O)cc21 [Example 10A-11] | 
500 | 69 |  | CCN1CCC[C@@H]1Cn1c(CN2CCC(c3cccc(OCc4ccc(Cl)cc4F)n3)CC2)nc2ccc(C(=O)O)cc21 [Example 11A-54, 2-[(4-{6-[(4-chloro-2-fluorobenzyl)oxy]pyridin-2-yl}piperidin-1-yl)methyl]-1-{[(2R)-1-ethylpyrrolidin-2-yl]methyl}-1H-benzimidazole-6-carboxylic acid] | 
320 | 79 |  | Cc1cc(Cn2c(CN3CCC(c4cccc(OCc5ccc(Cl)cc5F)n4)CC3)nc3ccc(C(=O)O)cc32)on1 [Example 11A-47, 2-[(4-{6-[(4-chloro-2-fluorobenzyl)oxy]pyridin-2-yl}piperidin-1-yl]methyl]-1-[(3-methyl-1,2-oxazol-5-yl)methyl]-1H-benzimidazole-6-carboxylic acid] | 
380 | 68 |  | O=C(O)c1ccc2nc(CN3CCC(c4cccc(OCc5ccc(Cl)cc5F)n4)CC3)n(CC3CCOCC3)c2c1 [Example 11A-49, 2-[(4-{6-[(4-chloro-2-fluorobenzyl)oxy]pyridin-2-yl}piperidin-1-yl)methyl]-1-(tetrahydro-2H-pyran-4-ylmethyl)-1H-benzimidazole-6-carboxylic acid] | 
> 20000 |  |  | CN1CCC(Cn2c(CN3CCC(c4cccc(OCc5ccc(Cl)cc5F)n4)CC3)nc3ccc(C(=O)O)cc32)CC1 [Example 11A-08, 2-[(4-{6-[(4-chloro-2-fluorobenzyl)oxy]pyridin-2-yl}piperidin-1-yl)methyl]-1-[(1-methylpiperidin-4-yl)methyl]-1H-benzimidazole-6-carboxylic acid] | 
110 | 79 |  | Cn1cc(Cn2c(CN3CCC(c4cccc(OCc5ccc(Cl)cc5F)n4)CC3)nc3ccc(C(=O)O)cc32)nn1 [Example 11A-36, 2-[(4-{6-[(4-chloro-2-fluorobenzyl)oxy]pyridin-2-yl}piperidin-1-yl)methyl]-1-[(1-methyl-1H-1,2,3-triazol-4-yl)methyl]-1H-benzimidazole-6-carboxylic acid] | 
210 | 77 |  | Cn1cc(CCn2c(CN3CCC(c4cccc(OCc5ccc(Cl)cc5F)n4)CC3)nc3ccc(C(=O)O)cc32)nn1 [Example 11A-44, 2-[(4-{6-[(4-chloro-2-fluorobenzyl)oxy]pyridin-2-yl}piperidin-1-yl)methyl]-1-[2-(1-methyl-1H-1,2,3-triazol-4-yl)ethyl]-1H-benzimidazole-6-carboxylic acid] | 
170 | 69 |  | CCn1c(CN2CCC(c3cccc(OCc4ccc(Cl)cc4F)n3)CC2)nc2ccc(C(=O)O)cc21 [Example 10A-39] | 
16 | 85 |  | COCCn1c(CN2CCC(c3cccc(OCc4ccc(Cl)cc4F)n3)CC2)nc2ccc(C(=O)O)cc21 [Example 1A-02, 2-[(4-{6-[(4-chloro-2-fluorobenzyl)oxy]pyridin-2-yl}piperidin-1-yl)methyl]-1-(2-methoxyethyl)-1H-benzimidazole-6-carboxylic acid] | 
1100 | 65 |  | Cc1cc(C)n(CCn2c(CN3CCC(c4cccc(OCc5ccc(Cl)cc5F)n4)CC3)nc3ccc(C(=O)O)cc32)n1 [Example 11A-57, 2-[(4-{6-[(4-chloro-2-fluorobenzyl)oxy]pyridin-2-yl}piperidin-1-yl)methyl]-1-[2-(3,5-dimethyl-1H-pyrazol-1-yl)ethyl]-1H-benzimidazole-6-carboxylic acid] | 
> 20000 |  |  | CN1CCCC1CCn1c(CN2CCC(c3cccc(OCc4ccc(Cl)cc4F)n3)CC2)nc2ccc(C(=O)O)cc21 (stereo not shown) [Example 11A-09, 2-[(4-{6-[(4-chloro-2-fluorobenzyl)oxy]pyridin-2-yl}piperidin-1-yl)methyl]-1-[2-(1-methylpyrrolidin-2-yl)ethyl]-1H-benzimidazole-6-carboxylic acid] | 
